Reference: publication PMC4045134, “Discovery of Triterpenoids as Reversible Inhibitors of α/β-hydrolase Domain Containing 12 (ABHD12)” (PLoS ONE, 2014)
Entries after “also recorded” stand apart in the source; their conditions may differ. Read-outs that look alike come from different tables or passages of the source.

Assays:
Format in all cases: biochemical
hABHD12 [1] = molecular target: T1, hABHD12 (Homo sapiens, UniProt Q8N2K0); assay: Fluorescent glycerol assay of 1-AG hydrolysis in hABHD12-HEK293 lysates; conditions: hABHD12-HEK293 lysates; for Emax: read-out: max inhibition (converted)
T1 construct: expressed in transfected cells; host or cells: HEK293 (transient)
T1 sequence (Q8N2K0 1-398): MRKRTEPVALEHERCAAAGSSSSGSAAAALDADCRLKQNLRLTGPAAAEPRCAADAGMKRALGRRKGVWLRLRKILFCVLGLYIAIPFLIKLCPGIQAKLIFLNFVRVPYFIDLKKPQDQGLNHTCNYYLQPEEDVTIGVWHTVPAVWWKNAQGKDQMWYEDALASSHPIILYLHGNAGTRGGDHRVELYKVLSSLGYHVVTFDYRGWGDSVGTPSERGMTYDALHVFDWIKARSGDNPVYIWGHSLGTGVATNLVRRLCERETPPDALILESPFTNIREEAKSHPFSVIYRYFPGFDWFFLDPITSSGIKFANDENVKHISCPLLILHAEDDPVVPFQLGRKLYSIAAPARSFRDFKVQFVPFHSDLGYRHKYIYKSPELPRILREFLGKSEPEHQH
Protocol: (§1) Glycerol liberated from 1-AG hydrolysis was determined with a sensitive fluorescent assay using lysates of HEK293 cells with transient overexpression of hABHD12, hABHD6 or hMAGL, essentially as previously described. […] Fluorescence (λex 530; λem 590 nm) was monitored using a Tecan Infinite M200 plate reader (Tecan Group Ltd., Männedorf, Switzerland). Inhibitory activities of selected compounds towards FAAH were determined using membranes of hFAAH overexpressing COS-7 cells, essentially as previously described. The final incubation volume (100 µL) contained 1 µg of protein and the substrate concentration was 20 µM (10 nM of ^3H-anandamide having specific activity of 60 Ci/mmol and concentration of 1 mCi/mL).

hABHD6 = molecular target: T2, hABHD6 (Homo sapiens, UniProt Q9BV23); assay: Fluorescent glycerol assay in hABHD6-HEK293 lysates; conditions: 10 µM; NI = no inhibition at 10 µM; read-out: hABHD6 Remaining activity % control ± s.e.m (n=3)
T2 construct: expressed in transfected cells; host or cells: HEK293 (transient)
T2 sequence (Q9BV23 1-337): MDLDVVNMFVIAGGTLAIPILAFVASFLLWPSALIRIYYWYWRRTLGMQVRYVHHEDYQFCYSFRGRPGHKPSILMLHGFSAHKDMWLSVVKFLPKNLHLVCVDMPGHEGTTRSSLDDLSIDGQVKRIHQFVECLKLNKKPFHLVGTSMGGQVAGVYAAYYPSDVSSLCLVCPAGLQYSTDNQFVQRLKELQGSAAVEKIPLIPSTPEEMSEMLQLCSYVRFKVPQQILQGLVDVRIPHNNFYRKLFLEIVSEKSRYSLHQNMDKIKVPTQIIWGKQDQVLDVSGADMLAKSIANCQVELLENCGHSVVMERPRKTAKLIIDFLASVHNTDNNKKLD
Protocol: as §1

hMAGL = molecular target: T3, hMAGL (Homo sapiens, UniProt Q99685); assay: Fluorescent glycerol assay in hMAGL-HEK293 lysates; conditions: 10 µM; read-out: hMAGL Remaining activity % control ± s.e.m (n=3)
T3 construct: expressed in transfected cells; host or cells: HEK293 (transient)
T3 sequence (Q99685 1-303): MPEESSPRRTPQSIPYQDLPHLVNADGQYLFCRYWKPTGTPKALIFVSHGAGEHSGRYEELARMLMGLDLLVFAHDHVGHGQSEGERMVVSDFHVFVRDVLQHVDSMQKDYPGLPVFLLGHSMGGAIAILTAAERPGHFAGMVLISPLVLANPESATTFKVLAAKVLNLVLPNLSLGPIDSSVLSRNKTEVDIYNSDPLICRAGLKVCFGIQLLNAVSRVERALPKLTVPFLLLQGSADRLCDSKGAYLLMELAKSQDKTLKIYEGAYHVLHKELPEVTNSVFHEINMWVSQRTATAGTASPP
Protocol: as §1

hFAAH = molecular target: T4, hFAAH (Homo sapiens, UniProt O00519); assay: FAAH activity, membranes of hFAAH overexpressing COS-7 cells, 3H-anandamide; conditions: read-out: hFAAH Remaining activity % control (mean (range)), n=2
T4 construct: expressed in transfected cells; host or cells: COS-7
T4 sequence (O00519 1-579): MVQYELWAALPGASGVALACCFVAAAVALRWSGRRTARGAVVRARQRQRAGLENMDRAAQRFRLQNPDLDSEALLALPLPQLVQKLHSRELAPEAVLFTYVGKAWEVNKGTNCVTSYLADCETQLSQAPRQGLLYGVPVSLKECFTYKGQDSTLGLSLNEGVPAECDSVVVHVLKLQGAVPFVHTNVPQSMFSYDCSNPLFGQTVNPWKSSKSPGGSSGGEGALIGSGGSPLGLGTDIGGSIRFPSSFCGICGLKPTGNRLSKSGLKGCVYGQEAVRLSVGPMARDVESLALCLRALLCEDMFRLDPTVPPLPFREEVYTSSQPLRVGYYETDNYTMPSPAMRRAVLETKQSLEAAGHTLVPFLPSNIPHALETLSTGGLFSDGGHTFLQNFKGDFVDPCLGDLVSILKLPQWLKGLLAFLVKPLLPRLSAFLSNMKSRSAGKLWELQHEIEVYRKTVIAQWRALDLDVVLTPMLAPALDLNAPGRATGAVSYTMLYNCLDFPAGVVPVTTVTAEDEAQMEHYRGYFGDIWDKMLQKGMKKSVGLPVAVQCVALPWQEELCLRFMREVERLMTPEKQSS
Protocol: as §1

CB1R [2] = molecular target: T5, CB1R (Rattus norvegicus, UniProt P20272); assay: [35S]GTPγS binding, CB1R agonist activity, rat cerebellar membranes; conditions: 10 µM
T5 construct: membranes prepared from brain tissue of 4-week-old male rodents were used; from tissue; host or cells: rat cerebellar membranes
T5 sequence (P20272 whole entry): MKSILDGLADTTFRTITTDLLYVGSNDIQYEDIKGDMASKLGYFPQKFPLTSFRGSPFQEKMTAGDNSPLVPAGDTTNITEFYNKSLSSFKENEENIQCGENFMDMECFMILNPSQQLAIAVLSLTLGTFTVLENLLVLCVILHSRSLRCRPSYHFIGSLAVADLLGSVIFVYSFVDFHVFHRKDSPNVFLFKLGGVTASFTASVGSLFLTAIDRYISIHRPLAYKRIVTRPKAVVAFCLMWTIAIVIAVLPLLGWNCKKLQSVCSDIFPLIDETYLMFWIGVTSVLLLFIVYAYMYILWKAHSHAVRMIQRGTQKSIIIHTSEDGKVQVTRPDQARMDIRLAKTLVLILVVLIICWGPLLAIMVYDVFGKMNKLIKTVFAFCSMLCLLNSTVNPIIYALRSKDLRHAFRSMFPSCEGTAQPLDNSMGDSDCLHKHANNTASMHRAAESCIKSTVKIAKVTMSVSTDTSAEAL
Protocol: (§2) The CB1 and CB2 receptor activity of the selected compounds (10 µM) were measured using the GTPγS binding assay according to the previously described methods, [33].
(§3) For ABPP experiments (Figure 6C) and cannabinoid receptor activity assays (Table S2), membranes prepared from brain tissue of 4-week-old male rodents were used. The animals were obtained from the National Laboratory Animal Centre, University of Eastern Finland. Approval for the harvesting of animal tissue was obtained from the local welfare officer of the University of Eastern Finland.

hCB2R = molecular target: T6, hCB2R (Homo sapiens, UniProt P34972); assay: [35S]GTPγS binding, CB2R agonist activity, hCB2R-CHO cell membranes; conditions: 10 µM
T6 construct: expressed in transfected cells; host or cells: CHO
T6 sequence (P34972 whole entry): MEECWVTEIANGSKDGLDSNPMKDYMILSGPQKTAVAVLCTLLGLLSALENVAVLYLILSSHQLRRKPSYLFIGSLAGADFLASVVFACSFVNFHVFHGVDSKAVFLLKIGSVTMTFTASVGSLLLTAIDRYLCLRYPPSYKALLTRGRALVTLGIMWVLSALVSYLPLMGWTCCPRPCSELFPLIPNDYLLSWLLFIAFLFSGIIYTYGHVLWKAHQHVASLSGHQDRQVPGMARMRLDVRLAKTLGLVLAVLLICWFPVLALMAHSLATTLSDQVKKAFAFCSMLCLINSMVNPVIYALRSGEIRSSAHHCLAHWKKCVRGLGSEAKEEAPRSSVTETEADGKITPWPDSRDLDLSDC

CB1R [3] = molecular target: T5, CB1R; assay: [35S]GTPγS binding, CB1R antagonist activity, rat cerebellar membranes; conditions: 10 µM
Protocol: as §2, §3

hABHD12 [4] = molecular target: T1, hABHD12; assay: Reversibility testing, 40-fold dilution of enzyme-inhibitor complex; conditions: time points 10, 20, 30, 60 and 90 min
Protocol: Reversibility testing was carried out as previously described. Briefly, DMSO/inhibitor (0.5 µl) was incubated together with hABHD12-HEK293 lysate (4.5 µl, 0.3 µg protein/well) in TEMN-BSA buffer for 30 min. After this, a 40-fold dilution of enzyme-inhibitor complex was brought about by addition of the substrate [1-AG, 12.5 µM final concentration, containing additionally 1% EtOH (v/v)] in 195 µl of glycerol assay mix and fluorescence was kinetically monitored at 10 min intervals for 90 min at RT.

hABHD12 [5] = molecular target: T1, hABHD12; assay: Competitive ABPP with TAMRA-FP in hABHD12-HEK293 lysates; conditions: 1 h inhibitor, 5 min probe
Protocol: (§4) Competitive ABPP using HEK293 cell lysates and mouse brain membranes was conducted to visualize effects of selected triterpenoids on the binding of the active site serine-targeting fluorescent fluorophosphonate probe TAMRA-FP following outlines of previous protocols, [31]. Briefly, lysates (25 µg) of HEK293 cells with or without (Mock) hABHD12 overexpression or mouse wholebrain membranes (100 µg) were treated for 1 h with DMSO or the inhibitor, after which TAMRA-FP labelling was conducted for 5 min (lysates) or 1 hour (membranes) at RT (final probe concentration 2 µM). The reaction was quenched by addition of gel loading buffer (followed by boiling for 5 min in the case of lysates), after which 10 µg protein (10 µl) was loaded per lane and the proteins were resolved in 10% SDS-PAGE together with standards. TAMRA-FP labeling was visualized (λex 552; λem 575 nm) by a fluorescent reader (FLA-3000 laser fluorescence scanner, Fujifilm, Tokyo, Japan). The intensity of bands was quantified using ImageJ, a freely available image analysis software (http://rsbweb.nih.gov/ij/).

ABHD12 = molecular target: T7, ABHD12 (Mus musculus, UniProt Q99LR1); assay: Competitive ABPP with TAMRA-FP in mouse brain membrane proteome; conditions: mouse brain membranes, 1 h inhibitor, 1 h probe
T7 construct: the sole serine hydrolase targeted by the triterpenoids in native brain membrane proteome; from tissue; host or cells: mouse whole-brain membranes
T7 sequence (Q99LR1 1-398): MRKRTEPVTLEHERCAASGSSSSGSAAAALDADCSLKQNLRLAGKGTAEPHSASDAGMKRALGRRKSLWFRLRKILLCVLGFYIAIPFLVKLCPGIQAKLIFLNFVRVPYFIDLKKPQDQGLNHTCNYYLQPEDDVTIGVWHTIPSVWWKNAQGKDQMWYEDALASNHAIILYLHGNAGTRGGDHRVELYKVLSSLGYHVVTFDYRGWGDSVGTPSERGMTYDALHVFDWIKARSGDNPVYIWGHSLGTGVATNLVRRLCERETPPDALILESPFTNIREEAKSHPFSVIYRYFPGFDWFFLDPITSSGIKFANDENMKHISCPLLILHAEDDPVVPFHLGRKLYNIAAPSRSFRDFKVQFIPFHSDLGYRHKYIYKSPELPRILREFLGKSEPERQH
Protocol: as §4, §3

[6] = system: metabolic serine hydrolases; assay: Competitive ABPP, other serine hydrolases of mouse brain membrane proteome
Protocol: as §4
For ABPP experiments (Figure 6C) and cannabinoid receptor activity assays (Table S2), membranes prepared from brain tissue of 4-week-old male rodents were used. The animals were obtained from the National Laboratory Animal Centre, University of Eastern Finland. […]

[7] = three independent experiments, read-out: -logIC50±s.e.m. (converted)

Question: Which results are given for `C=C(C)C1CCC2(C(=O)O)CCC3(C)C(CCC4C5(C)Cc6c([nH]c7ccccc67)C(C)(C)C5CCC43C)C12` (stereo not drawn) [Compound 33]?
Answer: IC50 (hABHD12 [1]; [7]): 0.933 µM; IC50 (hABHD12 [1]; read-out: IC50): 0.9 µM; Emax (hABHD12 [1]): 65%; remaining activity at 10 µM (hABHD6): 81 ± 4.3%; remaining activity at 10 µM (hMAGL): 74.8 ± 4.6%; remaining activity at 10 µM (hFAAH): 90%; CB1R agonist activity [35S]GTPγS binding % Basal (Mean (range), n=2) (CB1R [2]): 95 (94-96) % Basal; CB2R agonist activity [35S]GTPγS binding % Basal (Mean (range), n=2) (hCB2R): 102 (90-114) % Basal; CB1R antagonist activity [35S]GTPγS binding % HU210-evoked response (Mean (range), n=2) (CB1R [3]): 97 (96-98) % HU210-evoked response; time-dependency of inhibitor potency (IC50) after 40-fold dilution (hABHD12 [4]): time-dependent drop of inhibitor potency

Question: How did the remaining activity at 10 µM (hABHD12 [1]; 10 µM, NI = no inhibition, read-out: Remaining activity at 10 µM % ± s.e.m.) turn out when `C=C(C)[C@@H]1CC[C@]2(C(=O)N3CCCCC3)CC[C@]3(C)[C@H](CC[C@@H]4[C@@]5(C)CC[C@H](O)C(C)(C)[C@@H]5CC[C@]43C)[C@@H]12` [Compound 22] was run?
Answer: 94 ± 0.5%

Question: And the “TAMRA-FP probe labeling of hABHD12” value (hABHD12 [5])?
Answer: lacked activity; also recorded: ineffective

Question: And the “TAMRA-FP probe labeling of ABHD12” value (ABHD12)?
Answer: ineffective, even at 200 µM concentration

Question: For `CCCCCCCCCCC[C@@H](C[C@@H]1OC(=O)[C@H]1CCCCCC)OC(=O)[C@H](CC(C)C)NC=O` [THL, tetrahydrolipstatin, reference compound], which “TAMRA-FP probe labeling of hABHD12” value (hABHD12 [5]) is on record?
Answer: fully prevented

Question: And the “TAMRA-FP probe labeling of ABHD12” value (ABHD12)?
Answer: prevented TAMRA-FP labeling

Question: And the “time-dependency of inhibitor potency (IC50) after 40-fold dilution” value (hABHD12 [4])?
Answer: remained constant; also recorded: does not change in a statistically significant manner

Question: Which results are given for `C=C(C)[C@@H]1CC[C@]2(C(=O)O)CC[C@]3(C)[C@H](CC[C@@H]4[C@@]5(C)Cc6c([nH]c7ccc(OC)cc67)C(C)(C)[C@@H]5CC[C@]43C)[C@@H]12` [Compound 34]?
Answer: IC50 (hABHD12 [1]; [7]): 1.62 µM; Emax (hABHD12 [1]): 100%; time-dependency of inhibitor potency (IC50) after 40-fold dilution (hABHD12 [4]): time-dependent drop of inhibitor potency

Question: Which results are given for `CC(C)[C@@H]1CC[C@]2(C(=O)O)CC[C@]3(C)[C@H](CC[C@@H]4[C@@]5(C)CCC(=O)C(C)(C)[C@@H]5CC[C@]43C)[C@@H]12` [Compound 23]?
Answer: IC50 (hABHD12 [1]; [7]): 1.62 µM; Emax (hABHD12 [1]): 89%; remaining activity at 10 µM (hABHD6): 83 ± 2.8%; remaining activity at 10 µM (hMAGL): 77.5 ± 3.1%; remaining activity at 10 µM (hFAAH): 98%; CB1R agonist activity [35S]GTPγS binding % Basal (Mean (range), n=2) (CB1R [2]): 89 (86-92) % Basal; CB2R agonist activity [35S]GTPγS binding % Basal (Mean (range), n=2) (hCB2R): 98 (95-100) % Basal; CB1R antagonist activity [35S]GTPγS binding % HU210-evoked response (Mean (range), n=2) (CB1R [3]): 92 (90-95) % HU210-evoked response; TAMRA-FP probe labeling of hABHD12 (hABHD12 [5]): dose-dependently inhibited probe labeling of hABHD12; TAMRA-FP probe labeling of ABHD12 (ABHD12): selectively inhibited probe labeling of ABHD12; also recorded: dose-dependently inhibit TAMRA-FP labeling of ABHD12 already at 20 µM; additional targets among the metabolic serine hydrolases [6]: no additional targets are evident
